In PubChem BioAssay AID1259407 (Chemical Carcinogenesis Research Information System (CCRIS), 2018):
Calls of active or inactive are those of the source. How the calls were made is not given here.

Tested on: CCRIS mutagenicity, Ames/micronucleus/aberration tests
Assay: CCRIS mutagenicity studies
[1] = Test System: AMES SALMONELLA TYPHIMURIUM, Strain/Indicator: TA98, Metabolic Activation: NONE, Method: STANDARD PLATE
[2] = Test System: AMES SALMONELLA TYPHIMURIUM, Strain/Indicator: TA100, Metabolic Activation: NONE, Method: STANDARD PLATE
[3] = Test System: AMES SALMONELLA TYPHIMURIUM, Strain/Indicator: TA1535, Metabolic Activation: NONE, Method: STANDARD PLATE
[4] = Test System: AMES SALMONELLA TYPHIMURIUM, Strain/Indicator: TA1537, Metabolic Activation: NONE, Method: STANDARD PLATE
[5] = Test System: AMES SALMONELLA TYPHIMURIUM, Strain/Indicator: TA98, Metabolic Activation: NONE, Method: PREINCUBATION
[6] = Test System: AMES SALMONELLA TYPHIMURIUM, Strain/Indicator: TA100, Metabolic Activation: NONE, Method: PREINCUBATION
[7] = Test System: AMES SALMONELLA TYPHIMURIUM, Strain/Indicator: TA1535, Metabolic Activation: NONE, Method: PREINCUBATION

`CCCCCN(CCCCC)N=O` was tested, and the mutagenic call (Test System: AMES SALMONELLA TYPHIMURIUM, Strain/Indicator: TA100, Metabolic Activation: RAT, LIVER, S-9, KC500 OR PHENOBARBITAL, Method: LIQUID SUSPENSION) was “active; positive”, the mutagenic call (Test System: AMES SALMONELLA TYPHIMURIUM, Strain/Indicator: TA1530, Metabolic Activation: RAT, LIVER, S-9, Method: STANDARD PLATE) was “active; positive” and the mutagenic call (Test System: CHINESE HAMSTER V-79, Strain/Indicator: V-79/8-AZAGUANINE, Metabolic Activation: CELL-MEDIATED, Method: STANDARD PLATE) was “active; positive”.
`[CH3][Sn]([Cl])([Cl])[Cl]` was tested, and the mutagenic call (Test System: AMES SALMONELLA TYPHIMURIUM, Strain/Indicator: TA98, Metabolic Activation: NONE, Method: SUSPENSION/PLATE) was “inactive; negative” and the mutagenic call (Test System: AMES SALMONELLA TYPHIMURIUM, Strain/Indicator: TA100, Metabolic Activation: NONE, Method: SUSPENSION/PLATE) was “inactive; negative”.
In the case of `CC(C)NNC(=O)c1ccncc1`, the mutagenic call [1] is reported as “inactive; negative”, the mutagenic call (Test System: AMES SALMONELLA TYPHIMURIUM, Strain/Indicator: TA98, Metabolic Activation: RAT, LIVER, S-9, AROCLOR 1254, Method: STANDARD PLATE) is reported as “inactive; negative” and the mutagenic call [2] is reported as “inactive; negative”. The mutagenic call (Test System: AMES SALMONELLA TYPHIMURIUM, Strain/Indicator: TA100, Metabolic Activation: RAT, LIVER, S-9, AROCLOR 1254, Method: STANDARD PLATE) was “inactive; negative”, the mutagenic call [3] was “inactive; negative” and the mutagenic call (Test System: AMES SALMONELLA TYPHIMURIUM, Strain/Indicator: TA1535, Metabolic Activation: RAT, LIVER, S-9, AROCLOR 1254, Method: STANDARD PLATE) was “inactive; negative”. The mutagenic call [4] was “inactive; negative” and the mutagenic call (Test System: AMES SALMONELLA TYPHIMURIUM, Strain/Indicator: TA1537, Metabolic Activation: RAT, LIVER, S-9, AROCLOR 1254, Method: STANDARD PLATE) was “inactive; negative”.
For `CC1=C(C(=O)OC(C)C)C(c2cccc([N+](=O)[O-])c2)C(C(=O)OC2CN(C(c3ccccc3)c3ccccc3)C2)=C(N)N1` (stereo not drawn), the mutagenic call [1] was “inactive; negative”, the mutagenic call (Test System: AMES SALMONELLA TYPHIMURIUM, Strain/Indicator: TA98, Metabolic Activation: RAT LIVER S-9, Method: STANDARD PLATE) was “inactive; negative” and the mutagenic call [2] was “inactive; negative”. For the same compound, the mutagenic call (Test System: AMES SALMONELLA TYPHIMURIUM, Strain/Indicator: TA100, Metabolic Activation: RAT LIVER S-9, Method: STANDARD PLATE) was “inactive; negative”, the mutagenic call [3] was “inactive; negative” and the mutagenic call (Test System: AMES SALMONELLA TYPHIMURIUM, Strain/Indicator: TA1535, Metabolic Activation: RAT LIVER S-9, Method: STANDARD PLATE) was “inactive; negative”. The mutagenic call [4] was “inactive; negative”, the mutagenic call (Test System: AMES SALMONELLA TYPHIMURIUM, Strain/Indicator: TA1537, Metabolic Activation: RAT LIVER S-9, Method: STANDARD PLATE) was “inactive; negative” and the mutagenic call (Test System: E.COLI, Strain/Indicator: WP2 UVRA, Metabolic Activation: NONE, Method: STANDARD PLATE) was “inactive; negative”. The mutagenic call (Test System: E.COLI, Strain/Indicator: WP2 UVRA, Metabolic Activation: RAT LIVER S-9, Method: STANDARD PLATE) was “inactive; negative”.
With `CCCCN(COC(C)=O)N=O` the mutagenic call (Test System: UDS RAT UROTHELIAL CELLS, Strain/Indicator: THY INCORP, Metabolic Activation: NONE) was “active; positive”.
For `c1ccc2c(c1)ccc1ccc3ccsc3c12`, the mutagenic call (Test System: Ames Salmonella typhimurium, Strain/Indicator: TA98, Metabolic Activation: None, Method: Plate incorporation) was “active; positive”, the mutagenic call (Test System: Ames Salmonella typhimurium, Strain/Indicator: TA100, Metabolic Activation: None, Method: Plate incorporation) was “active; positive” and the mutagenic call (Test System: Ames Salmonella typhimurium, Strain/Indicator: TA1040, Metabolic Activation: None, Method: Plate incorporation) was “inactive; negative”.
For `Nc1ccc(Cc2ccc(N=O)c(Cl)c2)cc1Cl`, the mutagenic call [5] was “inactive; negative” and the mutagenic call [6] was “inactive; negative”.
`O=[N+]([O-])c1c2c(c3ccc4cccc5ccc1c3c45)CCCC2O` (stereo not drawn) was tested, and the mutagenic call [1] was “inactive; negative” and the mutagenic call [2] was “inactive; negative”.
For `CC[C@@]1(O)C(=O)OCc2c1cc1n(c2=O)Cc2cc3c(CN(C)C)c(O)ccc3nc2-1`, the mutagenic call (Test System: CHINESE HAMSTER V-79, Strain/Indicator: V-79 (HPRT)/6-THIOGUANINE, Metabolic Activation: NONE) was “active; positive”.
With `Cc1cncc(C)c1.Cc1cncc(C)c1.[Cl][Pt][Cl]` the mutagenic call (Test System: AMES SALMONELLA TYPHIMURIUM, Strain/Indicator: TA92, Metabolic Activation: NONE, Method: STANDARD PLATE) was “inactive; negative”, the mutagenic call [1] was “active; positive” and the mutagenic call [2] was “inactive; negative”. The mutagenic call (Test System: AMES SALMONELLA TYPHIMURIUM, Strain/Indicator: TA2410, Metabolic Activation: NONE, Method: STANDARD PLATE) was “active; positive”.
In the case of `CC=C(Cl)Cl`, the mutagenic call (Test System: AMES SALMONELLA TYPHIMURIUM, Strain/Indicator: RSJ100, Metabolic Activation: NONE, Method: PREINCUBATION) is reported as “active; positive”, the mutagenic call (Test System: AMES SALMONELLA TYPHIMURIUM, Strain/Indicator: RSJ100, Metabolic Activation: NONE, Method: VAPOR PHASE) is reported as “active; positive” and the mutagenic call [5] is reported as “inactive; negative”. The mutagenic call (Test System: AMES SALMONELLA TYPHIMURIUM, Strain/Indicator: TA98, Metabolic Activation: RAT, LIVER, S-9, AROCLOR, Method: PREINCUBATION) was “inactive; negative”, the mutagenic call [6] was “inactive; negative” and the mutagenic call (Test System: AMES SALMONELLA TYPHIMURIUM, Strain/Indicator: TA100, Metabolic Activation: RAT, LIVER, S-9, AROCLOR, Method: PREINCUBATION) was “inactive; negative”. For the same compound, the mutagenic call (Test System: AMES SALMONELLA TYPHIMURIUM, Strain/Indicator: TA104, Metabolic Activation: NONE, Method: PREINCUBATION) was “inactive; negative”, the mutagenic call (Test System: AMES SALMONELLA TYPHIMURIUM, Strain/Indicator: TA104, Metabolic Activation: RAT, LIVER, S-9, AROCLOR, Method: PREINCUBATION) was “inactive; negative” and the mutagenic call [7] was “inactive; negative”. For the same compound, the mutagenic call (Test System: AMES SALMONELLA TYPHIMURIUM, Strain/Indicator: TA1535, Metabolic Activation: RAT, LIVER, S-9, AROCLOR, Method: PREINCUBATION) was “inactive; negative”, the mutagenic call (Test System: AMES SALMONELLA TYPHIMURIUM, Strain/Indicator: TPT100, Metabolic Activation: NONE, Method: PREINCUBATION) was “inactive; negative” and the mutagenic call (Test System: AMES SALMONELLA TYPHIMURIUM, Strain/Indicator: TPT100, Metabolic Activation: NONE, Method: VAPOR PHASE) was “active; positive”.
With `CCOc1ccc2ccccc2c1` the mutagenic call [5] was “inactive; negative”, the mutagenic call (Test System: AMES SALMONELLA TYPHIMURIUM, Strain/Indicator: TA98, Metabolic Activation: RAT LIVER S-9, PHENOBARBITAL AND BETA-NAPHTHOFLAVONE, Method: PREINCUBATION) was “inactive; negative” and the mutagenic call [6] was “inactive; negative”. The mutagenic call (Test System: AMES SALMONELLA TYPHIMURIUM, Strain/Indicator: TA100, Metabolic Activation: RAT LIVER S-9, PHENOBARBITAL AND BETA-NAPHTHOFLAVONE, Method: PREINCUBATION) was “inactive; negative”, the mutagenic call [7] was “inactive; negative” and the mutagenic call (Test System: AMES SALMONELLA TYPHIMURIUM, Strain/Indicator: TA1535, Metabolic Activation: RAT LIVER S-9, PHENOBARBITAL AND BETA-NAPHTHOFLAVONE, Method: PREINCUBATION) was “inactive; negative”. The mutagenic call (Test System: AMES SALMONELLA TYPHIMURIUM, Strain/Indicator: TA1537, Metabolic Activation: NONE, Method: PREINCUBATION) was “inactive; negative”, the mutagenic call (Test System: AMES SALMONELLA TYPHIMURIUM, Strain/Indicator: TA1537, Metabolic Activation: RAT LIVER S-9, PHENOBARBITAL AND BETA-NAPHTHOFLAVONE, Method: PREINCUBATION) was “inactive; negative” and the mutagenic call (Test System: E.COLI, Strain/Indicator: WP2UVRA/PKM101, Metabolic Activation: NONE, Method: PREINCUBATION) was “inactive; negative”. The mutagenic call (Test System: E.COLI, Strain/Indicator: WP2UVRA/PKM101, Metabolic Activation: RAT LIVER S-9, PHENOBARBITAL AND BETA-NAPHTHOFLAVONE, Method: PREINCUBATION) was “inactive; negative”.
